Molecular target: LRRK2 G2019S (Homo sapiens, UniProt Q5S007, G2019S)
Assay: LRRK2 G2019S Km ATP LanthaScreen assay
Format: biochemical
Conditions: not given

Chain of LRRK2 G2019S (Q5S007 whole entry G2019S): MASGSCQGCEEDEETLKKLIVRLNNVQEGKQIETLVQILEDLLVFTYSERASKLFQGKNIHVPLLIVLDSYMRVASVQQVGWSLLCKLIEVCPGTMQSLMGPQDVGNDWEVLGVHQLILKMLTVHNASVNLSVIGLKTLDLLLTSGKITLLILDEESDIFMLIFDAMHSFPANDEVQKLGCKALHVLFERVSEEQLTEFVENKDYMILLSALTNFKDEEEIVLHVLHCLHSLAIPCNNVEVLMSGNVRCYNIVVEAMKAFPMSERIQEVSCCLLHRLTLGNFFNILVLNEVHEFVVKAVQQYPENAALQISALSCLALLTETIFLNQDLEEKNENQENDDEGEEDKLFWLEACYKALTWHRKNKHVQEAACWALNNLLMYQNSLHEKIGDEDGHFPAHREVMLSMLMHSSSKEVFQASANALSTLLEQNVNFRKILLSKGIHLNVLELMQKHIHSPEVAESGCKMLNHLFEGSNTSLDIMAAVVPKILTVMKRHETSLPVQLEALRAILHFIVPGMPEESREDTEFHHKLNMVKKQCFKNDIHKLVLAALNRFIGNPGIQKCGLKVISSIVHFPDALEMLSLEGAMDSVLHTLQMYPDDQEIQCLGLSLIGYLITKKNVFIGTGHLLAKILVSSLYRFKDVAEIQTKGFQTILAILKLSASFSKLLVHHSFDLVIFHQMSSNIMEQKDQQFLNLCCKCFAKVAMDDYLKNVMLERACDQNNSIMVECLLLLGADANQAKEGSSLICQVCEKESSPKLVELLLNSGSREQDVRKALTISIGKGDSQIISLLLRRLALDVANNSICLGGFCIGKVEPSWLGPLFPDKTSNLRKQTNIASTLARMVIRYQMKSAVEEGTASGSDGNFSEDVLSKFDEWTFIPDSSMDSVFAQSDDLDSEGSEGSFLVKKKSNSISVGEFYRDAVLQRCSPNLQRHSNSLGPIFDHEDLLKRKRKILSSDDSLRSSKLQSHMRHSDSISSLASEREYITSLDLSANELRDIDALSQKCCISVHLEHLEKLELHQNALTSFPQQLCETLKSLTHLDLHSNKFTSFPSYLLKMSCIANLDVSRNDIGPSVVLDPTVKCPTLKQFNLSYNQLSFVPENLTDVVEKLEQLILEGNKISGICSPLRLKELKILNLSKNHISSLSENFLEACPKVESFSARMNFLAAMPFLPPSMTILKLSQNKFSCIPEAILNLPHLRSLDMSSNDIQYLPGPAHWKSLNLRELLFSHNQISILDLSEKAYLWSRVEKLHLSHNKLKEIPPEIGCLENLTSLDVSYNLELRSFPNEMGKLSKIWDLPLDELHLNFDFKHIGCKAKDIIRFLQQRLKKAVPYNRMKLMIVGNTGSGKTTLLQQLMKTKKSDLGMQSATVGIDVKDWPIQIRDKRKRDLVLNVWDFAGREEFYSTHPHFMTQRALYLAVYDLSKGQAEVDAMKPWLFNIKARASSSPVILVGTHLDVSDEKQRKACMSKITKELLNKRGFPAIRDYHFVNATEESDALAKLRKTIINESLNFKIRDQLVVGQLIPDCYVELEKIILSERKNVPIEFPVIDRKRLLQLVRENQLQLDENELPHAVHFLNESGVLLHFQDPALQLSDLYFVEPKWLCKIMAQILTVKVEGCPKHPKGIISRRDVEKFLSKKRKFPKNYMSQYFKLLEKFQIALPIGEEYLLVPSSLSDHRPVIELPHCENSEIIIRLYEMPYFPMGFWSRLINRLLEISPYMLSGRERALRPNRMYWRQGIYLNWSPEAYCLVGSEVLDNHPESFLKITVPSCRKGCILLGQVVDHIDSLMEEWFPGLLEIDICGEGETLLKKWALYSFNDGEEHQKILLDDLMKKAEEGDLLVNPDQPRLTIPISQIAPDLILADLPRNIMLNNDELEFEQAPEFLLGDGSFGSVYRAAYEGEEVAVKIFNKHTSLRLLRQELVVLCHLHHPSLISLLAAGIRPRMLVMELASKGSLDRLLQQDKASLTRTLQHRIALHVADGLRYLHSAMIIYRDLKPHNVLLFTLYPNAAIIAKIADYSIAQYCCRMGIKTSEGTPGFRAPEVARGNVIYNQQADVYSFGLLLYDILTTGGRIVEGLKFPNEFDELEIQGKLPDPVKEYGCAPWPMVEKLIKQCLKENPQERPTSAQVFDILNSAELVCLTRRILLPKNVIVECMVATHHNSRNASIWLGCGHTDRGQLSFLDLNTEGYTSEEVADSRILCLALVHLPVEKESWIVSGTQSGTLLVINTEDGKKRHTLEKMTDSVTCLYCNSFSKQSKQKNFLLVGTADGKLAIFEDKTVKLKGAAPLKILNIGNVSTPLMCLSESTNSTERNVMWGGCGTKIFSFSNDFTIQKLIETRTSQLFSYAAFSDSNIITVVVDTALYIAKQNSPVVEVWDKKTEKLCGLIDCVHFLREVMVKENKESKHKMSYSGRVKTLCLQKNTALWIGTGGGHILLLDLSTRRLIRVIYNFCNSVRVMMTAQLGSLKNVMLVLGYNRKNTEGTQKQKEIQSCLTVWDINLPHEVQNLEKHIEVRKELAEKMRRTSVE

LRRK2 pIC50	Compound
10.0	O=C(Nc1cc2cc(C3CCN([C@@H]4COC[C@@H]4O)CC3)c(Cl)cc2cn1)C1CC12CCOC2 (single isomer, unassigned) [Ex-8.1, N-(7-chloro-6-(1-((3R,4R or 3S,4S)-4-hydroxytetrahydrofuran-3-yl)piperidin-4-yl)isoquinolin-3-yl)-5-oxaspiro[2.4]heptane-1-carboxamide]

Same assay, conditions: read-out: LRRK2 pIC50 (converted)

IC50 [nM]	Compound
5.62	CC1(C)CCC(C(=O)Nc2cc3cc(C4CCC(N5CCC(F)C5)CC4)c(Cl)cc3cn2)CO1 (single isomer, unassigned) [Ex-5.17, N-(7-chloro-6-(4-(3-fluoropyrrolidin-1-yl)cyclohexyl)isoquinolin-3-yl)-6,6-dimethyltetrahydro-2H-pyran-3-carboxamide]
21.9	Cn1cc(C(=O)Nc2cc3cc(C4CCN([C@]5(C)COC[C@@H]5O)CC4)c(Cl)cc3cn2)cn1 (single isomer, unassigned) [Ex-12.7, N-(7-chloro-6-(1-(4-hydroxy-3-methyltetrahydrofuran-3-yl)piperidin-4-yl)isoquinolin-3-yl)-1-methyl-1H-pyrazole-4-carboxamide]
1.15	CC1(N2CCC(c3cc4cc(NC(=O)[C@H]5CCCO5)ncc4cc3Cl)CC2)COCC1O (stereo partly drawn) [Ex-3.2]
0.0813	CC(C)c1cc2cc(NC(=O)C3CC3c3cnn(C)c3)ncc2cc1Cl (stereo not drawn) [Ex-21.1, N-(7-chloro-6-isopropylisoquinolin-3-yl)-2-(1-methyl-1H-pyrazol-4-yl)cyclopropane-1-carboxamide]
0.575	Cn1cc(C2CC2C(=O)Nc2cc3cc(C4CC(N5CC(F)C5)C4)c(Cl)cc3cn2)cn1 (single isomer, unassigned) [Ex-5.25, N-(7-chloro-6-(3-(3-fluoroazetidin-1-yl)cyclobutyl)isoquinolin-3-yl)-2-(1-methyl-1H-pyrazol-4-yl)cyclopropane-1-carboxamide]
0.0813	CC1(N2CCC(c3cc4cc(NC(=O)C5CC56CCOC6)ncc4cc3Cl)CC2)COCC1F (single isomer, unassigned) [Ex-6.3, (R or S)-N-(7-chloro-6-(1-((3R,4R or 3S,4S)-4-fluoro-3-methyltetrahydrofuran-3-yl)piperidin-4-yl)isoquinolin-3-yl)-5-oxaspiro [2.4] heptane-1-carboxamide]
1.38	CC1(N2CCC(c3cc4cc(NC(=O)C5C6CCOCC65)ncc4cc3Cl)CC2)COCC1O (single isomer, unassigned) [Ex-4.34, N-(7-chloro-6-(1-(4-hydroxy-3-methyltetrahydrofuran-3-yl)piperidin-4-yl)isoquinolin-3-yl)-3-oxabicyclo[4.1.0]heptane-7-carboxamide]
0.0813	Cc1cc2cnc(NC(=O)C3CC34CCOCC4)cc2cc1C1CCN(C2(C)COCC2O)CC1 (single isomer, unassigned) [Ex-15.16, N-(6-(1-(4-hydroxy-3-methyltetrahydrofuran-3-yl)piperidin-4-yl)-7-methylisoquinolin-3-yl)-6-oxaspiro[2.5]octane-1-carboxamide]
3.09	Cn1cc(C(=O)Nc2cc3cc(C4(C#N)CC45CC5)ccc3cn2)cn1 (single isomer, unassigned) [Ex-18.16, (R or S)-N-(6-(1-cyanospiro[2.2]pentan-1-yl)isoquinolin-3-yl)-1-methyl-1H-pyrazole-4-carboxamide]
2.75	O=C(Nc1cc2cc(C3CCOCC3)c(Cl)cc2cn1)C1CC12CCOCC2 (stereo not drawn) [Ex-7.10, N-(7-chloro-6-(tetrahydro-2H-pyran-4-yl)isoquinolin-3-yl)-6-oxaspiro[2.5]octane-1-carboxamide]
1.91	CC(C(=O)Nc1cc2cc(C3(C#N)CC34CC4)ccc2cn1)c1cnn(C)c1 (stereo not drawn) [Ex-2.109]
0.251	Cn1cc(CC(=O)Nc2cc3cc(C4CCN(C5(C)COCC5O)CC4)c(Cl)cc3cn2)c(Cl)n1 (stereo not drawn) [Ex-3.12]
324	Cn1ncc(C2CC2C(=O)Nc2cc3cc(C4(C#N)CC45CC5)ccc3cn2)c1C(F)(F)F (stereo not drawn) [Ex-2.48]
3.39	COC1COCC1N1CCC(c2cc3cc(NC(=O)C4CC45CCOCC5)ncc3cc2Cl)CC1 (single isomer, unassigned) [Ex-6.53, N-(7-chloro-6-(1-(4-methoxytetrahydrofuran-3-yl)piperidin-4-yl)isoquinolin-3-yl)-6-oxaspiro[2.5]octane-1-carboxamide]
0.661	CC(C(=O)Nc1cc2cc(C3CCN(C4(C)COCC4O)CC3)c(Cl)cc2cn1)c1cnn(C)c1 (stereo not drawn) [Ex-2.107]
43.7	CC1(N2CCC(c3cc4cc(NC(=O)C5CCC(C(F)(F)F)OC5)ncc4cc3Cl)CC2)COCC1O (stereo not drawn) [Ex-2.61]
5.13	CC1(N2CCC(c3cc4cc(NC(=O)C5CCC(C(F)(F)F)OC5)ncc4cc3Cl)CC2)COCC1O (stereo not drawn) [Ex-2.62]
0.851	N#CC1(c2ccc3cnc(NC(=O)C4CC4c4cccnc4)cc3c2)CC12CC2 (stereo not drawn) [Ex-2.46]
0.38	CC1(N2CCC(c3cc4cc(NC(=O)C5C6CCOCC65)ncc4cc3Cl)CC2)COCC1F (single isomer, unassigned) [Ex-6.42, N-(7-chloro-6-(1-(4-fluoro-3-methyltetrahydrofuran-3-yl)piperidin-4-yl)isoquinolin-3-yl)-3-oxabicyclo[4.1.0]heptane-7-carboxamide]

IC50 [nM]	Compound
3.8	O=C(Nc1cc2cc(C3CCC(N4CC(F)C4)CC3)c(Cl)cc2cn1)C1CC12CCOCC2 (single isomer, unassigned) [Ex-11.6, N-(7-chloro-6-(4-(3-fluoroazetidin-1-yl)cyclohexyl)isoquinolin-3-yl)-6-oxaspiro[2.5]octane-1-carboxamide]
2.82	O=C(Nc1cc2cc(C3CCN(C4COCC4O)CC3)c(Cl)cc2cn1)C1CC12CCOCC2 (single isomer, unassigned) [Ex-4.2, (R or S)-N-(7-chloro-6-(1-((3R,4R or 3R, 4R)-4-hydroxytetrahydrofuran-3-yl)piperidin-4-yl)isoquinolin-3-yl)-6-oxaspiro[2.5]octane-1-carboxamide]
28.2	CCC(=O)N1CCC(C(C)C(=O)Nc2cc3cc(C4(C#N)CC45CC5)ccc3cn2)CC1 (stereo not drawn) [Ex-2.113]
1.91	Cn1cc(C2CC2C(=O)Nc2cc3cc(C4CCC(N5CC(F)C5)CC4)c(Cl)cc3cn2)cn1 (single isomer, unassigned) [Ex-5.7, N-(7-cchloro-6-(4-(3-fluoroazetidin-1-yl)cyclohexyl)isoquinolin-3-yl)-2-(1-methyl-1H-pyrazol-4-yl)cyclopropane-1-carboxamide]
15.5	CCC1C(C(=O)Nc2cc3cc(C4CC45CC5)c(Cl)cc3cn2)C1c1cnn(C)c1 (stereo not drawn) [Ex-2.98]
5.5	O=C(Nc1cc2cc(C3CCN(C4COC4)CC3)c(Cl)cc2cn1)C1CCCC1 [Ex-7.5, N-(7-chloro-6-(1-(oxetan-3-yl)piperidin-4-yl)isoquinolin-3-yl)cyclopentanecarboxamide]
2	CC1(C)CC1C(=O)Nc1cc2cc(C3CCN(C4(C)COCC4O)CC3)c(Cl)cc2cn1 (stereo not drawn) [Ex-2.11]
0.661	CCC1C(C(=O)Nc2cc3cc(C4(C#N)CC45CC5)ccc3cn2)C1c1cnn(C)c1 (single isomer, unassigned) [Ex-1.25, (1R,3R or 1S,3S)-N-(6-((R or S)-1-cyanospiro[2.2]pentan-1-yl)isoquinolin-3-yl)-2-ethyl-3-(1-methyl-1H-pyrazol-4-yl)cyclopropane-1-carboxamide]
11.2	CC1(C)CC(C(=O)Nc2cc3cc(C4(C#N)CC45CC5)ccc3cn2)CCO1 (stereo not drawn) [Ex-2.58]
12.3	N#CC1(c2ccc3cnc(NC(=O)C4CC45CCOC5)cc3c2)CC12CC2 (stereo not drawn) [Ex-2.63]
0.631	Cn1cc(C(=O)Nc2cc3cc(C4(C#N)CC45CC5)ccc3cn2)cn1 (single isomer, unassigned) [Ex-18.15, (R or S)-N-(6-(1-cyanospiro[2.2]pentan-1-yl)isoquinolin-3-yl)-1-methyl-1H-pyrazole-4-carboxamide]
0.398	CC1(N2CCC(c3cc4cc(NC(=O)CC5CCOCC5)ncc4cc3Cl)CC2)COCC1O (single isomer, unassigned) [Ex-1.39, N-(7-chloro-6-(1-((3R,4R or 3S,4S)-4-hydroxy-3-methyltetrahydrofuran-3-yl)piperidin-4-yl)isoquinolin-3-yl)-2-(tetrahydro-2H-pyran-4-yl)acetamide]
2	Cc1cc2cnc(NC(=O)C3CC34CCOC4)cc2cc1C1CCN(C2(C)COCC2F)CC1 (single isomer, unassigned) [Ex-15.10, N-(6-(1-(4-fluoro-3-methyltetrahydrofuran-3-yl)piperidin-4-yl)-7-methylisoquinolin-3-yl)-5-oxaspiro[2.4]heptane-1-carboxamide]
0.871	N#CC1(c2ccc3cnc(NC(=O)C4CC45CC5)cc3c2)CC12CC2 (single isomer, unassigned) [Ex-2.1]
2.63	COC1CC(C(=O)Nc2cc3cc(C4CCN(C5COC5)CC4)c(Cl)cc3cn2)C1 (racemic) [Ex-7.9, Rac-N-(7-chloro-6-(1-(oxetan-3-yl)piperidin-4-yl)isoquinolin-3-yl)-3-methoxycyclobutane-1-carboxamide]
6.46	CC1(N2CCC(c3cc4cc(NC(=O)C5CC56CCOCC6)ncc4cc3Cl)CC2)CCOCC1F (single isomer, unassigned) [Ex-12.2, N-(7-chloro-6-(1-((3R,4R or 3S,4S)-3-fluoro-4-methyltetrahydro-2H-pyran-4-yl)piperidin-4-yl)isoquinolin-3-yl)-6-oxaspiro[2.5]octane-1-carboxamide]
0.661	CC(C(=O)Nc1cc2cc(C3CCN(C4(C)CCOC4O)CC3)c(Cl)cc2cn1)C1CCOCC1 (stereo not drawn) [Ex-2.104]
1.58	Cc1cc2cnc(NC(=O)C3CC3C(F)F)cc2cc1C1CCN(C2(C)COCC2O)CC1 (stereo not drawn) [Ex-2.56]
10.5	COC1CCC(C(=O)Nc2cc3cc(C4CCN(C5(C)COCC5O)CC4)c(Cl)cc3cn2)CC1 (single isomer, unassigned) [Ex-10.1, 1,4-trans, (3R,4R)- or 1,4-trans, (3S,4S)- or 1,4-cis, (3R,4R)- or 1,4-cis, (3S,4S)-N-(7-chloro-6-(1-(4-hydroxy-3-methyltetrahydrofuran-3-yl)piperidin-4-yl)isoquinolin-3-yl)-4-methoxycyclohexane-1-carboxamide]

— US20240398784A1, “C-LINKED ISOQUINOLINE AMIDES AS LRRK2 INHIBITORS, PHARMACEUTICAL COMPOSITIONS, AND USES THEREOF” (Merck Sharp & Dohme LLC, priority 2021, published 2024)
